This is an account of results in article PMC7869652 (Invertebrate neuroscience : IN, 2019).

Where two headings read alike, the source gives them in different places.

Holding throughout (type): cell-based
Assay [1] deals with T1, Aca-ACR-16 (Ancylostoma caninum, UniProt A0A5C1L5J1).
T1 sequence (A0A5C1L5J1 21-497): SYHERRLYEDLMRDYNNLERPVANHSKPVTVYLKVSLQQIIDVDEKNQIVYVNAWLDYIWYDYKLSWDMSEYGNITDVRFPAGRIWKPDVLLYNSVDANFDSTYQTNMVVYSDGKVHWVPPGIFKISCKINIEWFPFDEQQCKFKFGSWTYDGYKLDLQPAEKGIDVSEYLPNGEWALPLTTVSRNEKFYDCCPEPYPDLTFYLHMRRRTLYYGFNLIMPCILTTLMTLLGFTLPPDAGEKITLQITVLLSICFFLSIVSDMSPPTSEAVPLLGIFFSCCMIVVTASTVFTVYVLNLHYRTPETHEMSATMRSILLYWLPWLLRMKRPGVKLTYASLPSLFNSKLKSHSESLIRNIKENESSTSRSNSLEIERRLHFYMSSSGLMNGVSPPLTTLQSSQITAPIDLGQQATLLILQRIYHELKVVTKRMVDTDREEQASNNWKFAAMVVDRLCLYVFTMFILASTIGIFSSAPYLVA
The assay is described as follows: two-electrode voltage clamp, Xenopus oocytes, inhibition of ACh current. The settings on record: read-out: % inhibition at 10 μM.

Assay [2] has as its target T1, Aca-ACR-16. The description is as above. The conditions noted are these: read-out: % inhibition at 10 μM. This is another data set of the same source.
Assay [3] concerns the target T1, Aca-ACR-16. Put plainly: two-electrode voltage clamp, Xenopus oocytes, peak current.
Assay [4] has as its target T1, Aca-ACR-16. The description is as above. The settings on record: agonist; 10 s application; co-expressed with Asu-RIC-3.

As to `CNC1(C)C2CCC(C2)C1(C)C` (stereo not drawn) [mecamylamine], the inhibition at 10 µM at Aca-ACR-16 [1] stood at 98.8 ± 0.6%. As to `CO[C@H]1CC=C2CCN3CCC4=C(CC(=O)OC4)[C@]23C1` [dihydro-β-erythroidine], the inhibition at 10 µM at Aca-ACR-16 [2] was found to be 98.8 ± 0.4%.

Consider `CN1C(=O)[C@]23C[C@H]4C(C)(C)[C@]5(CNc6c5ccc5c6OC=CC(C)(C)O5)C[C@@]41CN2CC[C@@]3(C)O` [derquantel], for which, on Aca-ACR-16 [1], the inhibition at 10 µM was 72 ± 5.6%. Consider `CC(=O)OCC[N+](C)(C)C` [acetylcholine], for which, at Aca-ACR-16 [3], the EC50 came out at 50 µM.

Turning to `Clc1ccc(C2CC3CCC2N3)cn1` (stereo not drawn) [epibatidine], on Aca-ACR-16 [4], the “% of 100 μM ACh current at 100 μM” value amounted to 85.0 ± 4.0%.

With `COc1cc2c3cc1Oc1cc(ccc1O)C[C@@H]1c4c(cc(OC)c(O)c4Oc4ccc(cc4)C[C@@H]3N(C)CC2)CC[N+]1(C)C` [d-tubocurarine], the inhibition at 10 µM at Aca-ACR-16 [1] stood at 100 ± 0.1%.
